Common to all, as to assay type: biochemical
In one assay the target is CDK2/CCNE1 (Homo sapiens, UniProt P24941). The assay is described as follows: CDK2 homogeneous time-resolved fluorescence (HTRF) kinase assay. The note with it: CDK2/CCNE. The procedure, abridged: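 An HTRF format measures CDK2/CCNE1 (3 nM) phosphorylating a 4E-BP1 Thr37/46 peptide at high (1 mM) ATP. Reactions run one hour at 23 °C, then EDTA-quenched and probed with Eu-labelled phospho-specific antibody.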
(Time-resolved FRET reads energy transfer from a long-lived donor to a nearby acceptor.)

The target in the next assay is CDK1/CCNB1 (Homo sapiens, UniProt P06493). The assay is described as follows: CDK1 homogeneous time-resolved fluorescence (HTRF) kinase assay. The note with it: CDK1/CCNB. A digest of the protocol:
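0.5 nM CDK1/CCNB1 was preincubated 20 min at 23 °C with compound in HEPES pH-unspecified buffer (MgCl2, EGTA, DTT, Tween 20), then reacted 60 min with 1 mM ATP and 50 nM ULight-4E-BP1 (Thr37/46) peptide. EDTA-stopped reactions were detected with 2 nM Eu-anti-phospho antibody; IC50 from 11-point half-log titrations.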

In the next assay the target is CDK4/CCND3 (Homo sapiens, UniProt P11802). The assay can be described thus: CDK4 homogeneous time-resolved fluorescence (HTRF) kinase assay. The note with it: CDK4/CCND. The procedure, abridged:
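TR-FRET read (665 nm, or 665/615 ratio) of 4E-BP1 Thr37/46 phosphorylation by 1.5 nM CDK4/CCND3 at 1 mM ATP, 50 nM ULight peptide, 1% DMSO. Reaction ran 60 min at 23 °C after 20 min compound–enzyme preincubation. IC50 from 11-point half-log dilutions, top 10 μM.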

The next assay addresses CDK6/CCND1 (Homo sapiens, UniProt Q00534). The assay is described as follows: CDK6 homogeneous time-resolved fluorescence (HTRF) kinase assay. The note with it: CDK6/CCND, 1 mM ATP. The procedure, abridged: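 Assay conditions: HEPES buffer containing 10 mM MgCl2, 1 mM EGTA, 2 mM DTT, 0.01% Tween 20; 1 nM CDK6/CCND1, 50 nM peptide substrate, 1 mM ATP. Detection after 60 min reaction used 2 nM europium antibody with 340 nm excitation. Potency fitted from half-log series, 11 points.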

Where [1] appears, read: <25 nM, read-out: CDK2/CCNE IC50, <25 nM.
Setting [2] is: >250 nM, read-out: CDK1/CCNB IC50 >250 nM.
[3] abbreviates: >250 nM, read-out: CDK4/CCND IC50, >250 nM.
Where [4] appears, read: >250 nM, read-out: CDK6/CCND IC50, >250 nM.
[5] abbreviates: 25-250 nM, read-out: CDK2/CCNE IC50, 25-250 nM.
Where [6] appears, read: 25-250 nM, read-out: CDK4/CCND IC50, 25-250 nM.
Setting [7] is: 25-250 nM, read-out: CDK6/CCND IC50, 25-250 nM.

Like-named read-outs stand apart in the source and are kept apart here. Where only a bound is given, the exact number is not on record here.

Chain of CDK6/CCND1 (Q00534 whole entry): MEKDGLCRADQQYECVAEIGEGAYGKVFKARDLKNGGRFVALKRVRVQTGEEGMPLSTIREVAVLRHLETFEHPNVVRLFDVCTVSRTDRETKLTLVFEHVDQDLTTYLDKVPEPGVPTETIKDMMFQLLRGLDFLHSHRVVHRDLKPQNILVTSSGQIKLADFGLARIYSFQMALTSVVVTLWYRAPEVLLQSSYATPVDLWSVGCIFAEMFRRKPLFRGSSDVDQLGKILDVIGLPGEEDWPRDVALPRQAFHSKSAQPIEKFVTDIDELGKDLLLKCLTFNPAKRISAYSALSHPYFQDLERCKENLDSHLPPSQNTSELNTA
Chain of CDK6/CCND1 (P24385 whole entry partner): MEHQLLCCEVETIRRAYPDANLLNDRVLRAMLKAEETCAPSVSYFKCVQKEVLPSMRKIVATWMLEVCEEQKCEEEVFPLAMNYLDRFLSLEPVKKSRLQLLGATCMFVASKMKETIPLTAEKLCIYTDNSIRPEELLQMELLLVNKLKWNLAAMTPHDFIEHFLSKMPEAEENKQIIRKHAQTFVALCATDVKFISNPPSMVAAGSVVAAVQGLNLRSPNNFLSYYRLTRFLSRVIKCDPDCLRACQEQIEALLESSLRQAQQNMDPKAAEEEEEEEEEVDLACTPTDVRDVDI
Chain of CDK1/CCNB1 (P06493 whole entry): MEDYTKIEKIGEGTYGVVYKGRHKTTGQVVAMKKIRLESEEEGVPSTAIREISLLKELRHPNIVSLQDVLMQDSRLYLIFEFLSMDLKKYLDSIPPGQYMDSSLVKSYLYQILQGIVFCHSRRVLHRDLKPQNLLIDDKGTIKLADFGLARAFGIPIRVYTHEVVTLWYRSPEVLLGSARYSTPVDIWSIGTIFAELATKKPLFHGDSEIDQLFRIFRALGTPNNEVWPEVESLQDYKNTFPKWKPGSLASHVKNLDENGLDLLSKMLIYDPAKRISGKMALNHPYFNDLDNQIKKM
Chain of CDK1/CCNB1 (P14635 whole entry partner): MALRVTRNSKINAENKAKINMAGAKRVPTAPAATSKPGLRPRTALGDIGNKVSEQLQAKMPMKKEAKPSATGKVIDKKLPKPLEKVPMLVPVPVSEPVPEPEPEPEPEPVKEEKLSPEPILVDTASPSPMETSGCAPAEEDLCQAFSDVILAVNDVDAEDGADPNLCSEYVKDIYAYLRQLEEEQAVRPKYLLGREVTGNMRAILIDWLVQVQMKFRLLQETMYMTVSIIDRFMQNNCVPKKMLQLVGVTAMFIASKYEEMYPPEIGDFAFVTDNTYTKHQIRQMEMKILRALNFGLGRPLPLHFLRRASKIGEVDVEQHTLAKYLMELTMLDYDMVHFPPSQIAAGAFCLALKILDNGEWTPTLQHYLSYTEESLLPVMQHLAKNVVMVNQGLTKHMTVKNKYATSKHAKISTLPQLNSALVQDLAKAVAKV
Chain of CDK4/CCND3 (P11802 whole entry): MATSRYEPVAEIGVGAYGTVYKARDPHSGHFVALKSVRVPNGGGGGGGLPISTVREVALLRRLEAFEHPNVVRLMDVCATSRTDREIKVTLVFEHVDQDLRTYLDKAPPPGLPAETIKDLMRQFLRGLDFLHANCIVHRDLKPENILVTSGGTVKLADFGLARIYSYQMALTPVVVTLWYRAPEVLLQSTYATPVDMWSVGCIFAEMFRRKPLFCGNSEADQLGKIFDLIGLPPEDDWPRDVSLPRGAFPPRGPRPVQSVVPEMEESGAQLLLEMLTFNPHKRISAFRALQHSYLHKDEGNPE
Chain of CDK4/CCND3 (P30281 whole entry partner): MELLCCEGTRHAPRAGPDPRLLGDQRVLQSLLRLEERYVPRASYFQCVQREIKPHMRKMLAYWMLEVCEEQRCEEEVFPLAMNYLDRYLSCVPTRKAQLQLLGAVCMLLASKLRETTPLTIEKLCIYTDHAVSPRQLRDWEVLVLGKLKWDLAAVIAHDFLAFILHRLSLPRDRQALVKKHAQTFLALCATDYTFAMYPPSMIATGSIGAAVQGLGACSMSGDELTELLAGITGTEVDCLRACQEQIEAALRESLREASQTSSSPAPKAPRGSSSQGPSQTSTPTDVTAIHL

In the case of `Cc1c(-c2nccc3cnc(Nc4ccc(S(=O)(=O)Nc5cc(C(F)(F)F)cc(C(F)(F)F)n5)cc4)cc23)ccc2c1cnn2CC(C)(C)O` [Ex 775, N-(4,6-bis(trifluoromethyl)pyridin-2-yl)-4-((5-(1-(2-hydroxy-2-methylpropyl)-4-methyl-1H-indazol-5-yl)-2,6-naphthyridin-3-yl)amino)benzenesulfonamide], the IC50 was under 25 nM on CDK2/CCNE1 (setting [1]), over 250 nM on CDK1/CCNB1 (setting [2]), over 250 nM at CDK4/CCND3 (setting [3]) and over 250 nM on CDK6/CCND1 (setting [4]).

Turning to `Cc1c(-c2nccc3cnc(Nc4ccc(NS(=O)(=O)c5ccc(Cl)cn5)cc4)cc23)ccc2c1cnn2CC(C)(C)O` [Ex 777, 5-chloro-N-(4-((5-(1-(2-hydroxy-2-methylpropyl)-4-methyl-1H-indazol-5-yl)-2,6-naphthyridin-3-yl)amino)phenyl)pyridine-2-sulfonamide], the IC50 at CDK2/CCNE1 (setting [1]) is under 25 nM; on CDK1/CCNB1 (setting [2]), over 250 nM; at CDK4/CCND3 (setting [3]), over 250 nM; on CDK6/CCND1 (setting [4]) it was over 250 nM.

Regarding `Cc1c(-c2nccc3cnc(Nc4ccc(NS(=O)(=O)c5ccc(C(F)(F)F)nc5)cc4)cc23)ccc2c1cnn2CC(C)(C)O` [Ex 778, N-(4-((5-(1-(2-hydroxy-2-methylpropyl)-4-methyl-1H-indazol-5-yl)-2,6-naphthyridin-3-yl)amino)phenyl)-6-(trifluoromethyl)pyridine-3-sulfonamide], the IC50 at CDK2/CCNE1 (setting [5]) is 25 to 250 nM; at CDK1/CCNB1 (setting [2]), over 250 nM; at CDK4/CCND3 (setting [3]), over 250 nM; at CDK6/CCND1 (setting [4]), over 250 nM.

For `COc1ccc(S(=O)(=O)Nc2ccc(Nc3cc4c(-c5ccc6c(cnn6CC(C)(C)O)c5C)nccc4cn3)cc2)cn1` [Ex 779, N-(4-((5-(1-(2-hydroxy-2-methylpropyl)-4-methyl-1H-indazol-5-yl)-2,6-naphthyridin-3-yl)amino)phenyl)-6-methoxypyridine-3-sulfonamide], the IC50 at CDK2/CCNE1 (setting [1]) was under 25 nM; on CDK1/CCNB1 (setting [2]) it was over 250 nM; at CDK4/CCND3 (setting [3]), over 250 nM; at CDK6/CCND1 (setting [4]), over 250 nM.

Consider `Cc1c(-c2nccc3cnc(Nc4ccc(NS(=O)(=O)c5ccc(N6CCOCC6)nc5)cc4)cc23)ccc2c1cnn2CC(C)(C)O` [Ex 780, N-(4-((5-(1-(2-hydroxy-2-methylpropyl)-4-methyl-1H-indazol-5-yl)-2,6-naphthyridin-3-yl)amino)phenyl)-6-morpholinopyridine-3-sulfonamide], for which the IC50 on CDK2/CCNE1 (setting [5]) is 25 to 250 nM; at CDK1/CCNB1 (setting [2]), over 250 nM; on CDK4/CCND3 (setting [3]), over 250 nM; at CDK6/CCND1 (setting [4]), over 250 nM.

With `Cc1c(-c2nccc3cnc(Nc4ccc(NS(=O)(=O)c5cnccn5)cc4)cc23)ccc2c1cnn2CC(C)(C)O` [Ex 781, N-(4-((5-(1-(2-hydroxy-2-methylpropyl)-4-methyl-1H-indazol-5-yl)-2,6-naphthyridin-3-yl)amino)phenyl)pyrazine-2-sulfonamide], the IC50 on CDK2/CCNE1 (setting [1]) was under 25 nM; on CDK1/CCNB1 (setting [2]) it was over 250 nM; on CDK4/CCND3 (setting [6]), 25 to 250 nM; on CDK6/CCND1 (setting [7]), 25 to 250 nM.

With `Cc1nc(-c2ccc(S(=O)(=O)Nc3ccc(Nc4cc5c(-c6ccc7c(cnn7CC(C)(C)O)c6C)nccc5cn4)cc3)s2)cs1` [Ex 782, N-(4-((5-(1-(2-hydroxy-2-methylpropyl)-4-methyl-1H-indazol-5-yl)-2,6-naphthyridin-3-yl)amino)phenyl)-5-(2-methylthiazol-4-yl)thiophene-2-sulfonamide], the IC50 was over 250 nM on CDK2/CCNE1 (>250 nM, read-out: CDK2/CCNE IC50, >250 nM); over 250 nM at CDK1/CCNB1 (setting [2]); over 250 nM on CDK4/CCND3 (setting [3]); over 250 nM at CDK6/CCND1 (setting [4]).

Take `Cc1ncc(S(=O)(=O)Nc2ccc(Nc3cc4c(-c5ccc6c(cnn6CC(C)(C)O)c5C)nccc4cn3)cc2)s1` [Ex 783, N-(4-((5-(1-(2-hydroxy-2-methylpropyl)-4-methyl-1H-indazol-5-yl)-2,6-naphthyridin-3-yl)amino)phenyl)-2-methylthiazole-5-sulfonamide]: the IC50 was under 25 nM at CDK2/CCNE1 (setting [1]), over 250 nM on CDK1/CCNB1 (setting [2]), over 250 nM at CDK4/CCND3 (setting [3]) and over 250 nM at CDK6/CCND1 (setting [4]).

On to `Cc1c(-c2nccc3cnc(Nc4ccc(NS(=O)(=O)c5ccc(N6CCN(C)CC6)cc5)cc4)cc23)ccc2c1cnn2CC(C)(C)O` [Ex 785, N-(4-((5-(1-(2-hydroxy-2-methylpropyl)-4-methyl-1H-indazol-5-yl)-2,6-naphthyridin-3-yl)amino)phenyl)-4-(4-methylpiperazin-1-yl)benzenesulfonamide], for which the IC50 is under 25 nM on CDK2/CCNE1 (setting [1]), over 250 nM at CDK1/CCNB1 (setting [2]), over 250 nM at CDK4/CCND3 (setting [3]) and over 250 nM at CDK6/CCND1 (setting [4]).

Take `Cc1c(-c2nccc3cnc(Nc4ccc(NS(=O)(=O)c5ccc(N6CCOCC6)cc5)cc4)cc23)ccc2c1cnn2CC(C)(C)O` [Ex 786, N-(4-((5-(1-(2-hydroxy-2-methylpropyl)-4-methyl-1H-indazol-5-yl)-2,6-naphthyridin-3-yl)amino)phenyl)-4-morpholinobenzenesulfonamide]: the IC50 is 25 to 250 nM at CDK2/CCNE1 (setting [5]), over 250 nM on CDK1/CCNB1 (setting [2]), over 250 nM on CDK4/CCND3 (setting [3]) and over 250 nM at CDK6/CCND1 (setting [4]).

Take `Cc1c(-c2nccc3cnc(Nc4ccc(NS(=O)(=O)c5ccccc5)cc4)cc23)ccc2c1cnn2CC(C)(C)O` [Ex 787, N-(4-((5-(1-(2-hydroxy-2-methylpropyl)-4-methyl-1H-indazol-5-yl)-2,6-naphthyridin-3-yl)amino)phenyl)benzenesulfonamide]: the IC50 at CDK2/CCNE1 (setting [1]) was under 25 nM; on CDK1/CCNB1 (setting [2]), over 250 nM; on CDK4/CCND3 (setting [3]), over 250 nM; at CDK6/CCND1 (setting [4]), over 250 nM.

As to `Cc1c(-c2nccc3cnc(Nc4ccc(S(=O)(=O)NC5CCOCC5)cc4)cc23)ccc2c1cnn2CC(C)(C)O` [Ex 793, 4-((5-(1-(2-hydroxy-2-methylpropyl)-4-methyl-1H-indazol-5-yl)-2,6-naphthyridin-3-yl)amino)-N-(tetrahydro-2H-pyran-4-yl)benzenesulfonamide], the IC50 at CDK2/CCNE1 (setting [1]) is under 25 nM; on CDK1/CCNB1 (setting [2]), over 250 nM; at CDK4/CCND3 (setting [6]), 25 to 250 nM; on CDK6/CCND1 (setting [7]) it was 25 to 250 nM.

As for `Cc1c(-c2nccc3cnc(Nc4ccc(S(=O)(=O)NC5CC5)cc4)cc23)ccc2c1cnn2CC(C)(C)O` [Ex 794, N-cyclopropyl-4-((5-(1-(2-hydroxy-2-methylpropyl)-4-methyl-1H-indazol-5-yl)-2,6-naphthyridin-3-yl)amino)benzenesulfonamide], the IC50 was under 25 nM at CDK2/CCNE1 (setting [1]), over 250 nM at CDK1/CCNB1 (setting [2]), 25 to 250 nM at CDK4/CCND3 (setting [6]) and 25 to 250 nM on CDK6/CCND1 (setting [7]).

Regarding `CCNS(=O)(=O)c1ccc(Nc2cc3c(-c4ccc5c(cnn5CC(C)(C)O)c4C)nccc3cn2)cc1` [Ex 795, N-ethyl-4-((5-(1-(2-hydroxy-2-methylpropyl)-4-methyl-1H-indazol-5-yl)-2,6-naphthyridin-3-yl)amino)benzenesulfonamide], the IC50 was under 25 nM at CDK2/CCNE1 (setting [1]), over 250 nM on CDK1/CCNB1 (setting [2]), 25 to 250 nM at CDK4/CCND3 (setting [6]) and 25 to 250 nM at CDK6/CCND1 (setting [7]).

As for `CNS(=O)(=O)c1ccc(Nc2cc3c(-c4ccc5c(cnn5CC(C)(C)O)c4C)nccc3cn2)cc1` [Ex 796, 4-((5-(1-(2-hydroxy-2-methylpropyl)-4-methyl-1H-indazol-5-yl)-2,6-naphthyridin-3-yl)amino)-N-methylbenzenesulfonamide], the IC50 at CDK2/CCNE1 (setting [1]) is under 25 nM; on CDK1/CCNB1 (25-250 nM, read-out: CDK1/CCNB IC50, 25-250 nM) it was 25 to 250 nM; on CDK4/CCND3 (setting [6]), 25 to 250 nM; on CDK6/CCND1 (setting [7]), 25 to 250 nM.

As for `Cc1c(-c2nccc3cnc(Nc4ccc(S(=O)(=O)Nc5ccncn5)cc4)cc23)ccc2c1cnn2CC(C)(C)O` [Ex 797, 4-((5-(1-(2-hydroxy-2-methylpropyl)-4-methyl-1H-indazol-5-yl)-2,6-naphthyridin-3-yl)amino)-N-(pyrimidin-4-yl)benzenesulfonamide], the IC50 on CDK2/CCNE1 (setting [5]) was 25 to 250 nM; at CDK1/CCNB1 (setting [2]) it was over 250 nM; on CDK4/CCND3 (setting [3]) it was over 250 nM; at CDK6/CCND1 (setting [4]), over 250 nM.

Consider `COc1ccc(NS(=O)(=O)c2ccc(Nc3cc4c(-c5ccc6c(cnn6CC(C)(C)O)c5C)nccc4cn3)cc2)nn1` [Ex 798, 4-((5-(1-(2-hydroxy-2-methylpropyl)-4-methyl-1H-indazol-5-yl)-2,6-naphthyridin-3-yl)amino)-N-(6-methoxypyridazin-3-yl)benzenesulfonamide], for which the IC50 at CDK2/CCNE1 (setting [1]) was under 25 nM; on CDK1/CCNB1 (setting [2]) it was over 250 nM; at CDK4/CCND3 (setting [6]), 25 to 250 nM; on CDK6/CCND1 (setting [7]), 25 to 250 nM.

These data come from patent publication US20260325533A1, “CDK INHIBITOR COMPOUNDS” (ALEKSIA THERAPEUTICS, INC., priority 2023, published 2026).
